We go through 1 compound from article PMC6158189, “A pharmacological probe identifies cystathionine β-synthase as a new negative regulator for ferroptosis” (Cell Death & Disease, 2018).

A word on the viability: it is the share of living cells, or the viability signal relative to a control. Lower therefore signals more harm to the cells.

The target in data set [1] is T1, hCBS-FL wild type (293T-CBS WT) (Homo sapiens, UniProt P35520).
T1 construct: human CBS or hCSE full-length (CBS-FL or CSE) was subcloned into pGEX-KG, pcDNA3 or pCDH vector; expressed in transfected cells
T1 sequence (P35520 1-551): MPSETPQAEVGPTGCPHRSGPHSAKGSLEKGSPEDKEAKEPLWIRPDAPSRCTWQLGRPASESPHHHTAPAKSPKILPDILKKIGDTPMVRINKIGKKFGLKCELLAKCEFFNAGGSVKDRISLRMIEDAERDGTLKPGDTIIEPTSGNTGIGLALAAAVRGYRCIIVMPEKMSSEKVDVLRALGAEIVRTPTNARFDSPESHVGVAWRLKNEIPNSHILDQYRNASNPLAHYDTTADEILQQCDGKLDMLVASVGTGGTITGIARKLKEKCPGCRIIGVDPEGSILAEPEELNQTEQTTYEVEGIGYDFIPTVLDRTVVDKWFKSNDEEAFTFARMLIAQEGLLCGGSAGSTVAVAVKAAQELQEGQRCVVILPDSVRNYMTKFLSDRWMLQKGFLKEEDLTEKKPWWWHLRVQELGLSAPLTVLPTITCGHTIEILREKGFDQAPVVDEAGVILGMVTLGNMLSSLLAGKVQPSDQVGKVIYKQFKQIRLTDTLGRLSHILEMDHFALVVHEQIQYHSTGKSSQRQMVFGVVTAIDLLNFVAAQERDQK
Nature of the data set: H2S in HEK293T cells stably expressing hCBS WT (AzMC probe). The settings on record: 8 h, 293T-CBS WT. The class given is cell-based. On the procedure:
HEK293T cells were transiently transfected with empty vector (EV, i and ii), hCBS-FL (iii and iv) or hCSE (v and vi) plasmids, followed by incubation with DMSO (i–iii and v) or 10 μM CH004 (iv and vi) for 8 h before staining with 50 μM AzMC, a H2S-specific probe (“Materials and Methods” section). For larger fluorescent and bright-field images, please see Supplementary Figure 4. The expression levels of hCBS or hCSE in HEK293T cells after transient transfections were determined by western blotting using an anti-CBS antibody (3E1, 1:2000; Abnova) or anti-CSE antibody (1:500, GeneTex). The densities of protein bands for hCBS or hCSE in the blots were quantified with the ImageJ software (National Institutes of Health, Bethesda, MD, USA) and expressed as ratios of respective control (EV group). All immunoblots are representative of at least two independent experiments using GAPDH as the loading control. The fluorescent images of the H2S (blue) were accordingly quantified (“Materials and Methods” section) with ImageJ. […] The DMSO groups of the controls (CTR), which are expressing of hCBS or hCSE, were normalized to 100% and the levels of H2S in CH004-treated or EV group are shown as relative percentages. c, d CH004 dose-dependently suppresses the activity of hCBS WT without affecting the activity of CH004-insensitive mutant. HEK293T cells stably expressing EV (i and ii), hCBS-FL wild type (293T-CBS WT; iii–v) or CBS-FL mutant (293T-CBS Q222A, vi–viii) were treated with DMSO (i–iii and vi), 5 μM CH004 (iv, vii) or 10 μM CH004 (v, viii) for 8 h before staining with the AzMC. For larger fluorescent and bright-field images, please see Supplementary Figures 5–6. […] The DMSO groups of the controls (CTR), which are expressing of hCBS-FL wt or Q222A mutant, were normalized to 100% and the levels of H2S in CH004-treated or EV group are shown as relative percentages. A representative fluorescence image from three independent experiments is shown. Means ± SDS (n = 3). Statistical analyses were performed on the raw data for each group by one-way (b) or two-way (d) ANOVA with Bonferroni post-tests. ***p < 0.001. Bars, 50 μm
H2S levels in living cells were detected using a H2S-specific fluorescent probe according to a protocol described previously[31],[55]. To measure H2S in transiently transfected HEK293T cells, the cells were seeded on poly-D-Lys-coated coverslips (Thermo Scientific, Waltham, MA, USA) in 12-well plates at a density of ~ 1 × 10^5 cells per well, and hCBS or hCSE plasmids were transiently transfected by X-tremeGENE HP DNA Transfection Reagent according to the manufacturer’s protocol (Roche, Basel, Switzerland). […] After incubation with 50 μM AzMC at 37 °C for 30 min, the cells were washed 4 times with PBS, and the fluorescent images were recorded with excitation by 405 nm laser by using a A1Si (Nikon) confocal microscope. The intensity of the blue fluorescent signals, indicating the amount of H2S, was quantified by ImageJ software (NIH, Bethesda, ML). The H2S signal was then corrected for the background signal detected in HEK293T cells transiently or stably expressing of empty vector (HEK293T-EV) and normalized by the corresponding cell-occupying area and compared with the control (DMSO group, 100%). Similarly, the H2S signal in HepG2 cells was quantified by AzMC staining, corrected for the background signal outside the cells, normalized by the cell area and expressed as percentages of DMSO control (100%). […]

Data set [2] is described as follows: viable cells (Annexin V-PI double negative) with CH004 and ferroptosis inhibitors, flow cytometry. As to conditions: human. Background: In flow cytometry, cells or beads pass a laser one at a time.

Consider `Cn1nc(Cc2ccccc2)nc2c(=O)n(C)c(=O)nc1-2` [CH004, 3-benzyl-1,6-dimethylpyrimido[5,4-e][1,2,4]triazine-5,7(1H,6H)-dione], for which the results for the “decrease in H2S” value in data set [1] (5 μM) and in data set [1] (10 μM) were 22% and 43%, respectively. Also, the viability at 24 h, 15 μM in data set [2] turned out to be 30.8%.
